Laboratory results taken from ChEMBL document CHEMBL1201862, “PubChem BioAssay data set” (2004).
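Five compound concentrations were applied to cells in 96-well plates for 48 hours; endpoints were derived by simple linear interpolation of the resulting dose-response curve. Here, GI50 denotes the concentration required for 50% inhibition of growth.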 Activity calls are given as the source filed them. Rule as the data show it: active = GI50 up to about 1.1 µM and inactive = higher.

Experiments:
Experiment in all cases: inhibition of tumour cell growth, NCI panel, 48 h
M14 = test system: M14
KM12 = test system: KM12
SR = test system: SR
OVCAR-8 = test system: OVCAR-8
NCI/ADR-RES = test system: NCI/ADR-RES
DU-145 = test system: DU-145
786-0 = test system: 786-0
CCRF-CEM = test system: CCRF-CEM
ACHN = test system: ACHN
BT-549 = test system: BT-549
Malme-3M = test system: Malme-3M
UO-31 = test system: UO-31
SK-MEL-28 = test system: SK-MEL-28
SF-539 = test system: SF-539
OVCAR-4 = test system: OVCAR-4
SK-MEL-2 = test system: SK-MEL-2
HL-60 = test system: HL-60
EKVX = test system: EKVX
CAKI-1 = test system: CAKI-1
NCI-H23 = test system: NCI-H23

Row | Structure (SMILES) | GI50 (M14) | GI50 (KM12) | GI50 (SR) | GI50 (OVCAR-8) | GI50 (NCI/ADR-RES) | GI50 (DU-145) | GI50 (786-0) | GI50 (CCRF-CEM) | GI50 (ACHN) | GI50 (BT-549) | GI50 (Malme-3M) | GI50 (UO-31) | GI50 (SK-MEL-28) | GI50 (SF-539) | GI50 (OVCAR-4) | GI50 (SK-MEL-2) | GI50 (HL-60) | GI50 (EKVX) | GI50 (CAKI-1) | GI50 (NCI-H23)
1 | Cn1cnc([N+](=O)[O-])c1Sc1nc(N)nc2c1ncn2[C@H]1C[C@H](O)[C@@H](CO)O1 | 1.16 µM (inactive) | 2.77 µM (inactive) | 1.07 µM (active) | 2.51 µM (inactive) | 1.28 µM (inactive) | 1.21 µM (inactive) | 3.86 µM (inactive) | 2.88 µM (inactive) | 3.52 µM (inactive) | 5.62 µM (inactive) | 5.26 µM (inactive) | 3.43 µM (inactive) | 14.5 µM (inactive) | 10.2 µM (inactive) | 2.99 µM (inactive) | 2.45 µM (inactive) | 4.86 µM (inactive) | 9.18 µM (inactive) | 4.05 µM (inactive) | 3.91 µM (inactive)
2 | CCC1CN2CCc3cc(OC)c(OC)cc3C2CC1CC1c2cc(OC)c(OC)cc2CCN1C(=O)C(Cc1c[nH]c2ccccc12)NC(=O)OC(C)(C)C (stereo not given) | 1.79 µM (inactive) | 2.83 µM (inactive) | 1.73 µM (inactive) | 3.27 µM (inactive) | 1.63 µM (inactive) | 2.42 µM (inactive) | 2.61 µM (inactive) | 3.1 µM (inactive) | 3.84 µM (inactive) | 3.36 µM (inactive) | 1.74 µM (inactive) | 2.77 µM (inactive) | 1.98 µM (inactive) | 2.34 µM (inactive) | 1.7 µM (inactive) | 2.67 µM (inactive) | 2.03 µM (inactive) | 5.7 µM (inactive) | 6.84 µM (inactive) | 7.67 µM (inactive)
3 | N#CC(C#N)SCc1ccccc1 | 11.5 µM (inactive) | 19.7 µM (inactive) | 1.11 µM (active) | 15 µM (inactive) | 6.64 µM (inactive) | 22.9 µM (inactive) | 15.7 µM (inactive) | 1.7 µM (inactive) | 40.4 µM (inactive) | 1.85 µM (inactive) | 47.8 µM (inactive) | 20.1 µM (inactive) | 36.2 µM (inactive) | 5.19 µM (inactive) | 23.7 µM (inactive) | 7.36 µM (inactive) | 4.44 µM (inactive) | > 96.2 µM (inactive) | 17.7 µM (inactive) | 10.5 µM (inactive)
4 | CO/C(=C/C(=O)C(Cl)(Cl)Cl)CC/C(=C\C(=O)C(Cl)(Cl)Cl)OC | 28.2 µM (inactive) | 27.7 µM (inactive) | 18.6 µM (inactive) | 21.9 µM (inactive) | 29.5 µM (inactive) | 25.1 µM (inactive) | 22.3 µM (inactive) | 24.3 µM (inactive) | 24.5 µM (inactive) | 27.9 µM (inactive) | 23 µM (inactive) | 20.5 µM (inactive) | 30.1 µM (inactive) | 23.6 µM (inactive) | 19.1 µM (inactive) | 32.4 µM (inactive) | 26.4 µM (inactive) | 20.4 µM (inactive) | 24.9 µM (inactive) | 22.4 µM (inactive)
5 | Cc1ccc([S+]([O-])c2sccc2C=O)cc1 (stereo not given) | 20 µM (inactive) | 27.7 µM (inactive) | 31.8 µM (inactive) | 23.1 µM (inactive) | 26.5 µM (inactive) | 54.3 µM (inactive) | 32.1 µM (inactive) | 20 µM (inactive) | 63 µM (inactive) | 25 µM (inactive) | 23.4 µM (inactive) | 70.1 µM (inactive) | 29.2 µM (inactive) | 21 µM (inactive) | 29 µM (inactive) | 43.6 µM (inactive) | 21 µM (inactive) | 26.2 µM (inactive) | > 100 µM (inactive) | 30.8 µM (inactive)
6 | COc1c(/C=C/C=O)cc2c(c1OC)OCO2 | 24.2 µM (inactive) | 12 µM (inactive) | 12.9 µM (inactive) | 33.6 µM (inactive) | 33.3 µM (inactive) | 28.4 µM (inactive) | 54.1 µM (inactive) | 22.1 µM (inactive) | 27.3 µM (inactive) | 47.3 µM (inactive) | 20.7 µM (inactive) | 35.9 µM (inactive) | > 100 µM (inactive) | 35 µM (inactive) | 16.6 µM (inactive) | 23.4 µM (inactive) | 23.6 µM (inactive) | 55.3 µM (inactive) | 5.21 µM (inactive) | 30.4 µM (inactive)
7 | COc1c2c(nc3ccccc13)-c1cc(C(CC(=O)OC(C)(C)C)C(=O)OC(C)C)c(CO)c(=O)n1C2 (stereo not given) | 39 µM (inactive) | > 100 µM (inactive) | 5.62 µM (inactive) | 71.1 µM (inactive) | 24.5 µM (inactive) | 22.2 µM (inactive) | 30.5 µM (inactive) | 4.48 µM (inactive) | 21.9 µM (inactive) | > 66.4 µM (inactive) | > 100 µM (inactive) | > 36.7 µM (inactive) | > 73.8 µM (inactive) | 36.9 µM (inactive) | > 70.5 µM (inactive) | > 100 µM (inactive) | > 25.2 µM (inactive) | > 100 µM (inactive) | 4.22 µM (inactive) | 55.7 µM (inactive)
